According to EP3638219B1, “COMPOSITION COMPRISING TERPINENE-4-OL FOR THE TREATMENT OF DEMODICOSIS” (priority 2017, dated 2018):

Legend:
demodex = settings: components of TTO; WO06119174 A1 and WO09032773 A2; cited from earlier work
[1] = Physical stability of terpinen-4-ol in aqueous media (phase separation, clarity); format: physicochemical
Protocol: The compositions according to the invention are physically stable, i.e. clear, transparent and without precipitates, and substantially retain the initial content of the initial ingredient.
For example, on a lab scale, terpinen-4-ol and a mixture of PPG-26 buteth-26 (b2), PEG-40 hydrogenated castor oil (b3) and trideceth-9 (b4) were mixed in water and stirred for about 30 minutes. Cocamidopropyl betaine was then added and a clear solution was obtained, which was verified as stable.

Compound	activity against demodex in vitro (demodex)	behaviour in aqueous media ([1]; concentrations below 2% in weight/weight of the composition, in the presence of commonly used emulsifiers and surfactants)	behaviour in aqueous media ([1]; in the presence of Tween 20 in a weight ratio to terpinen-4-ol up to 5:1)
C=C(C)C1CC=C(C)C(=O)C1 (stereo not shown) [carvone, reference compound]	active	–	–
CC1=CCC(O)(C(C)C)CC1 (stereo not shown) [terpinen-4-ol]	active	tends to separate from aqueous media	two-phase system
